Key:
Solubility = assay type: physicochemical; conditions: for Solubility in organic solvents: dimethyl sulfoxide and other organic solvents
[1] = system: human colon cancer cell line DLD-1; assay: Cancer cell growth inhibition, DLD-1 (sulforhodamine B); assay type: cell-based; conditions: DLD-1, 72 hours, 37° C.
Experimental: (§1) For the assessment of the inhibitory activity of BE-12406A, B, X1 and X2 against human cancer cells, in vitro tests were carried out. As the test cells, human colon cancer cell lines DLD-1 and LS180 and human lung cancer cell line PC13 were used. The cell culture medium was 10% fetal calf serum-RPMI medium for DLD-1 and LS180, and 10% fetal calf serum-RPMI-1640 medium for PC13. First, each of BE-12406A, B, X1 and X2 was dissolved in dimethyl sulfoxide and the solution was serially diluted with PBS (phosphate-buffered saline) to prepare test solutions. The cancer cell growth inhibition assay was performed as follows. Thus, 100 μl of a cell culture medium containing 3×10^3 cancer cells was distributed into a 96-well microtiter plate and incubated under 5% CO2 at 37° C. for 24 hours. Then, 11 μl of the above test solutions were added and the incubation was further carried out under 5% CO2 at 37° C. for an additional 72 hours. The cells were then fixed with 50% trichloroacetic acid and stained with 0.4% sulforhodamine B. From the stained cells, the dye was extracted with 10 mM Tris solution and the absorbance at 540 nm was measured and compared with the control.

P388/V cells = assay: In vitro growth inhibition of P388/V cells (vincristine-resistant); assay type: cell-based; conditions: Mus musculus, 72 hours, 37° C., read-out: IC50, 50% inhibition of P388/V cell growth
Experimental: (§2) In vitro activity tests were performed for evaluating the inhibitory activities of the antitumor substances BE-12406A and B against mouse tumor cells. In the in vitro antitumor assay using P388 tumor cells, the antitumor substance BE-12406A or B was first dissolved in dimethyl sulfoxide and the solution was serially diluted with a cell culture medium containing 20% of dimethyl sulfoxide (20% DMSO-RPMI-1640 medium). Then, 2 μl of each dilution was added to 200 μl of a cell culture medium (10% fetal calf serum-RPMI-1640 medium) containing 2.5×10^4 tumor cells and the mixture was incubated under 5% CO2 at 37° C. for 72 hours. The viable cells were then counted with a Coulter counter. The result was compared with the control data. […] The corresponding values for P388/V cells were 0.2 and 7 μM, respectively.
(§3) The P388/S tumor cell line is one of the common mouse leukemia cell lines, and the P388/V line is a strain of P388 leukemia cell which has acquired resistance to the anticancer agent vincristine.

P388 tumor cells = assay: In vitro growth inhibition of P388 tumor cells (overall statement); assay type: cell-based, mouse; conditions: 72 hours, 37° C.
Experimental: as §2

P388/S tumor cells = assay: In vitro growth inhibition of P388/S tumor cells (Coulter counter); assay type: cell-based; conditions: Mus musculus, 72 hours, 37° C., read-out: IC50, concentration causing 50% inhibition of P388/S cell growth
Experimental: as §2, §3

HeLa cells = assay: In vitro growth inhibition of HeLa cells (Crystal Violet); assay type: cell-based, human; conditions: 72 hours, 37° C.; for IC50: Homo sapiens, HeLa, read-out: IC50, 50% inhibitory concentration, HeLa
Experimental: (§4) Then, the in vitro inhibitory activity of BE-12406A and B was assayed using HeLa cells, which are human cancer cells, and L1210 cells which are mouse leukemia cells.
Thus, antitumor substance BE-12406A or B in a concentration series was added to 200 μl of a cell culture medium (10% fetal calf serum-MEM medium) containing 4×10^3 HeLa cells and the mixture was incubated under 5% CO2 at 37° C. for 72 hours. The surviving adherent cells were fixed with 10% formalin and stained with 0.01% Crystal Violet. Using a 1:1 (v/v) mixture of ethylene glycol and ethanol, the dye was extracted from the stained cells and the absorbance at 590 nm was measured and compared with the control.

L1210 cells = assay: In vitro growth inhibition of L1210 cells (Coulter counter); assay type: cell-based, mouse; conditions: 37° C.; for growth inhibition of L1210 cells (in words): 72 hours; for IC50: Mus musculus, L1210, 72 hours, read-out: IC50, 50% inhibitory concentration, L1210
Experimental: as §4
The growth inhibition assay using L1210 cells was performed as follows. Thus, antitumor substance BE-12406A or B in a concentration series was added to 200 μl of a cell culture medium (10% fetal calf serum-RPMI-1640) containing 4.5×10^3 L1210 cells and the mixture was incubated under 5% CO2 at 37° C. for 72 hours. The surviving suspended cells were counted with a Coulter counter and the result was compared with the control.

human cancer cells = assay: In vitro growth inhibition of human cancer cells DLD-1, LS180 and PC13 (overall statement); assay type: cell-based; conditions: DLD-1, LS180, PC13; 72 hours, 37° C.
Experimental: as §1

P388/A cells = assay: In vitro growth inhibition of P388/A cells (adriamycin-resistant); assay type: cell-based, mouse; conditions: for IC50: Mus musculus, P388/A (adriamycin-resistant), read-out: IC50, 50% inhibitory concentration, P388/A; for inhibition of P388/A cells (in words): adriamycin-resistant
Experimental: as §2

[2] = system: human lung cancer cell line PC13; assay: Cancer cell growth inhibition, PC13 (sulforhodamine B); assay type: cell-based; conditions: PC-13, PC13, 72 hours, 37° C.
Experimental: as §1

[3] = system: human colon cancer cell line LS180; assay: Cancer cell growth inhibition, LS180 (sulforhodamine B); assay type: cell-based; conditions: LS180, 72 hours, 37° C.; for IC50: Homo sapiens
Experimental: as §1

[4] = Acute toxicity in mice, single intraperitoneal dosing; assay type: in vivo, mouse (ICR; conditions: 100 mg/kg, ICR female mice
S-180 ascites tumor = assay: Antitumor effect on transplanted mouse S-180 ascites tumor (survival); assay type: in vivo; conditions: i.p.; for MST (mean survival time): days 1, 4, 7, 9 and 13, female ICR mice; for MST (% T/C), (treated MST/control MST) × 100: ≥ 125 = marked antitumor effect
Experimental: In this assay using mice, 10^6 (lethal dose) S-180 tumor cells pre mouse were intrapetitoneally administered and the 5% DMSO-PBS (phosphate Buffered Saline solution of BE-12406A in a dilution series (1:2, 1:4, 1:8, etc.) was intraperitoneally administered. The results are summarized in Table 3.
^1 Inoculum: 10^6 ascites tumor cells, intraperitoneal
^2 Host: Female ICR mice
^3 Treatment schedule: BE12406A was administered intraperitoneally on
^4 MST: Mean survival time (in days)
^5 % T/C: (treated MST/control MST) × 100
^6 Criteria: When % T/C ≥ 125, the test compound was considere
to produce a marked antitumor effect at the particular concentration.

Structure (SMILES) | Solubility in organic solvents (Solubility; tetrahydrofuran) | Solubility in water (Solubility) | IC50 [1] | IC50 (P388/V cells) | growth inhibition of P388 tumor cells (in words) (P388 tumor cells) | IC50 (P388/S tumor cells) | growth inhibition of HeLa cells (in words) (HeLa cells) | IC50 (HeLa cells) | growth inhibition of L1210 cells (in words) (L1210 cells) | IC50 (L1210 cells) | growth inhibition of human cancer cells (in words) (human cancer cells) | IC50 (P388/A cells) | inhibition of P388/A cells (in words) (P388/A cells) | IC50 [2] | IC50 [3] | inhibition of proliferation of LS180 (in words) [3] | Solubility in organic solvents (Solubility; dimethylformamide) | also measured
Cc1cc(O)c2c(c1)c(=O)oc1c3cccc(O)c3c(OC3OC(C)C(O)C(O)C3O)cc12 (centres unmarked) [BE-12406B] | readily soluble | Sparingly soluble | > 220 µM | 7 µM | markedly inhibit the growth | 7 µM | inhibited growth | 20 µM | inhibited growth | 60 µM | inhibit the growth | 11 µM | inhibited | 161 µM | 88.1 µM |  |  | 
COc1cc(C)cc2c(=O)oc3c4cccc(O)c4c(OC4OC(C)C(O)C(O)C4O)cc3c12 (centres unmarked) [BE-12406A] | readily soluble | Sparingly soluble | 18.4 µM | 0.2 µM | markedly inhibit the growth | 0.8 µM | inhibited growth | 11 µM | inhibited growth | 9.6 µM | inhibit the growth | 0.9 µM | inhibited | 20.7 µM | 12 µM | markedly inhibited proliferation |  | acute toxicity, death on day 5 [4]: no death was found; MST (mean survival time) (S-180 ascites tumor; 2.5 mg/kg/injection): 12.0 days; MST (% T/C), (treated MST/control MST) × 100 (S-180 ascites tumor; 2.5 mg/kg/injection): 120 % T/C; MST (mean survival time) (S-180 ascites tumor; 5 mg/kg/injection): 13.0 days; MST (% T/C), (treated MST/control MST) × 100 (S-180 ascites tumor; 5 mg/kg/injection): 130 % T/C; MST (mean survival time) (S-180 ascites tumor; 10 mg/kg/injection): 15.0 days; MST (% T/C), (treated MST/control MST) × 100 (S-180 ascites tumor; 10 mg/kg/injection): 150 % T/C; MST (mean survival time) (S-180 ascites tumor; 20 mg/kg/injection): > 30.0 days; MST (% T/C), (treated MST/control MST) × 100 (S-180 ascites tumor; 20 mg/kg/injection): > 300 % T/C; MST (mean survival time) (S-180 ascites tumor; 40 mg/kg/injection): > 30.0 days; MST (% T/C), (treated MST/control MST) × 100 (S-180 ascites tumor; 40 mg/kg/injection): > 300 % T/C; antitumor effect on transplanted S-180 tumor cells (in words) (S-180 ascites tumor; mice): showed an antitumor effect
COc1cc(C)cc2c(=O)oc3c4cccc(OC5OC(C)C(O)C(O)C5O)c4c(O)cc3c12 (centres unmarked) [BE-12406X1] |  | Sparingly soluble | 91.9 µM |  |  |  |  |  |  |  | inhibit the growth |  |  | 115 µM | 36.3 µM | markedly inhibited proliferation | soluble | 
COc1cc(C)cc2c(=O)oc3c4cccc(O)c4c(O)cc3c12 [BE-12406X2] |  | Sparingly soluble | > 311 µM |  |  |  |  |  |  |  | inhibit the growth |  |  | > 311 µM | 311 µM |  | soluble | 

From patent US5061695A, “Antitumor substance BE-12406” (Banyu Pharmaceutical Co., Ltd., priority 1989, dated 1991)
